Source: US11261175B2 (priority 2017, dated 2022)

Key:
Assay type in all cases: cell-based
[1] = system: HCV replicon NK5.1-Gluc (genotype 1b); assay: Anti-HCV activity using HCV replicon NK5.1-Gluc (genotype 1b) in Huh 7.5.1 cells, luciferase readout; conditions: Hepatitis C virus, 72 h; Huh 7.5.1 cells with NK5.1-Gluc replicon, 3 days, Gaussia luciferase; read-out: HCV wt. GT-1b
[2] = system: JFH5a-Rluc-ad34 virus (HCV GT-2a); assay: Anti-HCV activity using HCVcc (JFH5a-Rluc-ad34 virus) in Huh 7.5.1 cells, Renilla luciferase readout; conditions: Hepatitis C virus, GT2A, Huh-7.5.1, 72 h, read-out: HCV wt. GT-2a
Experimental: <Experimental Example 1> Measurement of Anti-HCV Activity of Compounds of Examples Using HCVcc
Step 1: Cell Line and Cell Culture
Huh 7.5.1 cells were grown in Dulbecco's Modified Eagle's medium (DMEM; Gibco) supplemented with antibiotics (100 U/mL penicillin, 10 μg/mL streptomycin) and 10% heat-inactivated fetal bovine serum (ΔFBS; PEAK) in a CO2 incubator at 37° C. with […].
Huh7.5.1 cells were transfected with in vitro transcription RNA of JFH5a-Rluc-ad34, a derivative of JFH1 with adaptive mutations in E2 and p7 regions, by electroporation. JFH5a-Rluc-ad34 virus contains Renilla luciferase (Rluc), which is convenient for virus proliferation assay. The cell culture medium containing HCV was collected 3-5 days after the electroporation and then filtered through a […] pore size filter.
Step 3: Antiviral Activity Test Using Infectious HCV Particles
Huh 7.5.1 cells were inoculated with JFH5a-Rluc-ad34 virus and incubated for 4 hours. Four hours after the virus inoculation, the Huh7.5.1 cells infected with HCV were cultured in the medium containing the compound of examples serially diluted. Three days later, the cells were harvested and the intracellular luciferase activity was measured using Renilla luciferase assay system (Promega). Finally, the luciferase activity was normalized with those obtained from the negative control cells (mock-treated cells).

[3] = system: HCV replicon S52-Feo (genotype 3a); assay: Anti-HCV activity using HCV replicon S52-Feo (genotype 3a) in Huh 7.5.1 cells, luciferase readout; conditions: Hepatitis C virus, 72 h; Huh 7.5.1 cells with S52-Feo replicon, 3 days, firefly luciferase; read-out: HCV wt. GT-3a
[4] = system: HCV genotype 1b replicon with NS5A L31V mutation; assay: Transiently transfected assay of genotype 1b resistance mutant RNA L31V; conditions: Hepatitis C virus, Huh-7.5.1, 72 h, read-out: HCV Mutation L31V
Source text: (§1) <Experimental Example 3> Transiently Transfected Assay of Genotype 1b Resistance Mutant RNAs
(§2) Replicon genomes substituted with Y93H, L31V and L31V+Y93H (double mutant), the resistance mutants to Daclatasvir with mutations at the NS5A protein domain 1.
(§3) These HCV resistance mutant genomes were linearized with scal restriction enzyme, and then the mutated HCV RNA was synthesized through in vitro transcription. Huh 7.5.1 cells were individually electroporated with HCV RNA with resistant mutations and plated in a 12 well plate. After 4 hours, Huh7.5.1 cells were seeded in DMEM containing the compounds of examples serially diluted for 3 days. Three days later, the cells were harvested and the intracellular luciferase activity was measured. The luciferase activity was normalized with those obtained from the negative control cells (mock-treated cells).

[5] = system: HCV genotype 1b replicon with NS5A Y93H mutation; assay: Transiently transfected assay of genotype 1b resistance mutant RNA Y93H; conditions: Hepatitis C virus, Huh-7.5.1, 72 h, read-out: HCV Mutation Y93H
Source text: as §1, §2, §3

[6] = system: HCV genotype 1b replicon with NS5A L31V+Y93H (double mutant); assay: Transiently transfected assay of genotype 1b resistance mutant RNA L31V+Y93H (double mutant); conditions: Hepatitis C virus, Huh-7.5.1, 72 h, read-out: HCV Mutation L31V + Y93H
Source text: as §1, §2, §3

Row | SMILES | EC50 [1] | EC50 [2] | EC50 [3] | EC50 [4] | EC50 [5] | EC50 [6]
1 | CCC1(CC)c2cc(NC(=O)[C@@H]3CCCN3C(=O)[C@H](NC(=O)OC)c3ccccc3)ccc2-c2ccc(NC(=O)[C@@H]3CCCN3C(=O)[C@H](NC(=O)OC)c3ccccc3)cc21 [Example 30, dimethyl (1R,1′R)-2,2′-((2S,2′S)-2,2′-(9,9-diethyl-9H-fluorene-2,7-diyl)bis(azanediyl)bis(oxomethylene)bis(pyrrolidine-2,1-diyl))bis(2-oxo-1-phenylethane-2,1-diyl)dicarbamate] | 0.01 to 0.1 nM | 0.1 to 1 nM | 0.1 to 1 nM | 0.1 to 1 nM | 1 to 100 nM | > 100 nM
2 | CCCCC1(CCCC)c2cc(NC(=O)[C@@H]3CC4(CN3C(=O)[C@H](NC(=O)OC)c3ccccc3)OCCO4)ccc2-c2ccc(NC(=O)[C@@H]3CC4(CN3C(=O)[C@H](NC(=O)OC)c3ccccc3)OCCO4)cc21 [Example 15, dimethyl ((1R,1′R)-((8S,8′S)-(((9,9-dibutyl-9H-fluorene-2,7-diyl)bis(azanediyl))bis(carbonyl))bis(1,4-dioxa-7-azaspiro[4.4]nonane-8,7-diyl))bis(2-oxo-1-phenylethane-2,1-diyl))dicarbamate] | 0.001 to 0.01 nM | 1 to 100 nM | 0.1 to 1 nM | 0.001 to 0.01 nM | 0.01 to 0.1 nM | 0.01 to 0.1 nM
3 | CCCCCC1(CCCCC)c2cc(NC(=O)[C@@H]3CCCN3C(=O)[C@H](NC(=O)OC)c3ccccc3)ccc2-c2ccc(NC(=O)[C@@H]3CC4(CN3C(=O)[C@H](NC(=O)OC)c3ccccc3)OCCO4)cc21 [Example 12, methyl ((R)-2-((S)-2-((7-((S)-7-((R)-2-((methoxycarbonyl)amino)-2-phenylacetyl)-1,4-dioxa-7-azaspiro[4.4]nonane-8-carboxamido)-9,9-dipentyl-9H-fluorene-2-yl)carbamoyl)pyrrolidine-1-yl)-2-oxo-1-phenylethyl)carbamate] | 0.001 to 0.01 nM | 1 to 100 nM | 0.01 to 0.1 nM | 0.001 to 0.01 nM | 0.1 to 1 nM | 1 to 100 nM
4 | CCCCC1(CCCC)c2cc(NC(=O)[C@@H]3C[C@H](COC)CN3C(=O)[C@H](NC(=O)OC)c3ccccc3)ccc2-c2ccc(-c3cnc([C@@H]4C[C@H](COC)CN4C(=O)[C@@H](NC(=O)OC)C(C)C)[nH]3)cc21 [Example 40, methyl ((S)-1-((2S,4S)-2-(5-(9,9-dibutyl-7-((2S,4S)-1-((R)-2-((methoxycarbonyl)amino)-2-phenylacetyl)-4-(methoxymethyl)pyrrolidine-2-carboxyamido)-9H-fluorene-2-yl)-1H-imidazole-2-yl)-4-(methoxymethyl)pyrrolidine-1-yl)-3-methyl-1-oxobutane-2-yl)carbamate] | 0.001 to 0.01 nM | 0.01 to 0.1 nM | 0.1 to 1 nM | 0.001 to 0.01 nM | 0.01 to 0.1 nM | 1 to 100 nM
5 | CCCCC1(CCCC)c2cc(NC(=O)[C@@H]3CCCN3C(=O)[C@H](NC(=O)OC)c3ccccc3)ccc2-c2ccc(NC(=O)[C@@H]3C[C@H](COC)CN3C(=O)[C@H](NC(=O)OC)c3ccccc3)cc21 [Example 37, methyl ((R)-2-((2S,4S)-2-((9,9-dibutyl-7-((S)-1-((R)-2-((methoxycarbonyl)amino)-2-phenylacetyl)pyrrolidine-2-carboxyamido)-9H-fluorene-2-yl)carbamoyl)-4-(methoxymethyl)pyrrolidine-1-yl)-2-oxo-1-phenylethyl)carbamate] | 0.001 to 0.01 nM | 0.1 to 1 nM | 0.001 to 0.01 nM | 0.001 to 0.01 nM | 0.01 to 0.1 nM | 1 to 100 nM
6 | CCCCC1(CCCC)c2cc(NC(=O)[C@@H]3CC4(CC4)CN3C(=O)[C@H](NC(=O)OC)c3ccccc3)ccc2-c2ccc(NC(=O)[C@@H]3CC4(CC4)CN3C(=O)[C@H](NC(=O)OC)c3ccccc3)cc21 [Example 21, dimethyl ((1R,1′R)-((6S,6′S)-(((9,9-dibutyl-9H-fluorene-2,7-diyl)bis(azanediyl))bis(carbonyl))bis(5-azaspiro[2.4]heptane-6,5-diyl))bis(2-oxo-1-phenylethane-2,1-diyl))dicarbamate] | 0.001 to 0.01 nM | 0.1 to 1 nM | 0.01 to 0.1 nM | 0.01 to 0.1 nM | 1 to 100 nM | 1 to 100 nM
7 | CCCCCC1(CCCCC)c2cc(NC(=O)[C@@H]3CC(=O)CN3C(=O)[C@H](NC(=O)OC)c3ccccc3)ccc2-c2ccc(NC(=O)[C@@H]3CC4(CN3C(=O)[C@H](NC(=O)OC)c3ccccc3)OCCO4)cc21 [Example 18, methyl ((R)-2-((S)-8-((7-((S)-1-((R)-2-((methoxycarbonyl)amino)-2-phenylacetyl)-4-oxopyrrolidine-2-carboxyamido)-9,9-dipentyl-9H-fluorene-2-yl)carbamoyl)-1,4-dioxa-7-azaspiro[4.4]nonane-7-yl)-2-oxo-1-phenylethyl)carbamate] | 0.01 to 0.1 nM | 1 to 100 nM | 0.1 to 1 nM | 0.01 to 0.1 nM | 0.1 to 1 nM | 1 to 100 nM
8 | CCCCC1(CCCC)c2cc(NC(=O)[C@@H]3C[C@H](O)CN3C(=O)[C@H](NC(=O)OC)c3ccccc3)ccc2-c2ccc(NC(=O)[C@@H]3C[C@H](O)CN3C(=O)[C@H](NC(=O)OC)c3ccccc3)cc21 [Example 35, dimethyl (1R,1′R)-2,2′-((3S,3′S,5S,5′S)-5,5′-(9,9-dibutyl-9H-fluorene-2,7-diyl)bis(azanediyl)bis(oxomethylene)bis(3-hydroxypyrrolidine-5,1-diyl))bis(2-oxo-1-phenylethane-2,1-diyl)dicarbamate] | 0.01 to 0.1 nM | 1 to 100 nM | 0.01 to 0.1 nM | 0.001 to 0.01 nM | 0.1 to 1 nM | 1 to 100 nM
9 | CCCCC1(CCCC)c2cc(NC(=O)[C@@H]3C[C@H]4CCC[C@H]4N3C(=O)[C@H](NC(=O)OC)c3ccccc3)ccc2-c2ccc(-c3cnc([C@@H]4CCCN4C(=O)[C@@H](NC(=O)OC)C(C)C)[nH]3)cc21 [Example 28, methyl ((S)-1-((S)-2-(5-(9,9-dibutyl-7-((2S,3aR,6aR)-1-((R)-2-((methoxycarbonyl)amino)-2-phenylacetyl)octahydrocyclopenta[b]pyrrole-2-carboxyamido)-9H-fluorene-2-yl)-1H-imidazole-2-yl)pyrrolidine-1-yl)-3-methyl-1-oxobutane-2-yl)carbamate] | 0.001 to 0.01 nM | 0.01 to 0.1 nM | 0.01 to 0.1 nM | 0.01 to 0.1 nM | 0.1 to 1 nM | > 100 nM
10 | CCCCC1(CCCC)c2cc(NC(=O)[C@@H]3C[C@@H](O)CN3C(=O)[C@H](NC(=O)OC)c3ccccc3)ccc2-c2ccc(NC(=O)[C@@H]3C[C@H](COC)CN3C(=O)[C@H](NC(=O)OC)c3ccccc3)cc21 [Example 38, methyl ((R)-2-((2S,4S)-2-((9,9-dibutyl-7-((2S,4R)-4-hydroxy-1-((R)-2-((methoxycarbonyl)amino)-2-phenylacetyl)pyrrolidine-2-carboxyamido)-9H-fluorene-2-yl)carbamoyl)-4-(methoxymethyl)pyrrolidine-1-yl)-2-oxo-1-phenylethyl)carbamate] | 0.01 to 0.1 nM | 0.1 to 1 nM | 0.01 to 0.1 nM | 0.001 to 0.01 nM | 0.001 to 0.01 nM | 0.01 to 0.1 nM
11 | CCCC1(CCC)c2cc(NC(=O)[C@@H]3CC4(CN3C(=O)[C@H](NC(=O)OC)c3ccccc3)OCCO4)ccc2-c2ccc(-c3cnc([C@@H]4CCCN4C(=O)[C@@H](NC(=O)OC)C(C)C)[nH]3)cc21 [Example 27, methyl ((S)-1-((S)-2-(5-(7-((S)-7-((R)-2-((methoxycarbonyl)amino)-2-phenylacetyl)-1,4-dioxa-7-azaspiro[4.4]nonane-8-carboxyamido)-9,9-dipropyl-9H-fluorene-2-yl)-1H-imidazole-2-yl)pyrrolidine-1-yl)-3-methyl-1-oxobutane-2-yl)carbamate] | 0.001 to 0.01 nM | 0.01 to 0.1 nM | 0.01 to 0.1 nM | 0.001 to 0.01 nM | 0.001 to 0.01 nM | 1 to 100 nM
